From patent EP0565593B1, “REDUCING PESTICIDAL INTERACTIONS IN CROPS” (priority 1990, dated 1992)
Like-named read-outs stand apart in the source and are kept apart here.

Tests used:
Corn [1] = test: whole plant or invertebrate; conditions: Zea mays, iv, 312 h
Corn [2] = test: Greenhouse test, combination of Procedures II and III: insecticide in-furrow or in cover layer, herbicide and antidote incorporated in cover layer (Examples 1-3, 6; Tables 1-3, 6); format: in vivo; conditions: for % Injury Corn / % Corn Injury PN 3320 / % Corn Injury PN 3377: 3 weeks; for Percent Injury Corn: 7 weeks
SJCA = test: Greenhouse test Procedure IV: herbicide, biocide and antidote PPI, weed SJCA (Examples 53-55; Tables 52-54); format: in vivo; conditions: all PPI; for % Inhibition SJCA: Herbicide No. 1, rate printed as '-'
Source text: The test in this example paralleled that in Example 51, except the procedure was according to Procedure IV above and the herbicides used were No. 1 (MON-12000); No. 21 (XRD-498) and, again, No. 18 (PURSUIT); the biocide was, again, MOCAP®. Observations were taken thirteen (13) days after PPI treatment with biocide and antidote.
This test was identical to that in Example 52, except for use of a different biocide, DIAZINON (Biocide No. 5, a nematicide and soil insecticide).
This test was also identical to that in the preceding two examples, except that the biocide was malathion (No. 7, an insecticide).
This test was identical to the preceding ones, except the biocide was DPX-43898 (No. 6, active ingredient in FORTRESS® insecticide, a soil insecticide). Also, the observation time was fourteen (14) days after PPI initiation.

[3] = tested on: velvetleaf (Abutilon theophrasti); test: Greenhouse test, combination of Procedures II and III (Examples 1, 2; Tables 1, 2); format: in vivo; conditions: for % Injury VELE: 3 weeks; for Percent Injury VELE: 7 weeks
[4] = Ex. 2: Insecticide 1 0.11 kg/305m + Herbicide 1 0.14 Kg/Ha
[5] = Ex. 2: Insecticide 1 0.11 kg/305m + Herbicide 1 0.56 Kg/Ha
[6] = Ex. 2: Insecticide 1 0.23 Kg/305m + Herbicide 1 0.14 + Herbicide 2 4.48 Kg/Ha
[7] = Ex. 2: Insecticide 1 0.23 Kg/305m + Herbicide 1 0.14 Kg/Ha
[8] = Ex. 2: Insecticide 1 0.23 Kg/305m + Herbicide 1 0.56 Kg/Ha
[9] = Ex. 2: Insecticide 2 3.36 Kg/Ha + Herbicide 1 0.14 + Herbicide 2 4.48 Kg/Ha
[10] = Ex. 6: Insecticide 1 0.23 Kg/305m + Herbicide 1 0.14 Kg/Ha
[11] = Ex. 6: Insecticide 1 0.23 Kg/305m + Herbicide 1 0.56 Kg/Ha
[12] = Ex. 6: Insecticide 2 0.23 Kg/305m + Herbicide 1 0.14 Kg/Ha
[13] = Ex. 6: Insecticide 2 0.23 Kg/305m + Herbicide 1 0.56 Kg/Ha
[14] = Insecticide 1 0.23 kg/305m + Herbicide 1 0.14 Kg/Ha
[15] = Insecticide 1 0.23 kg/305m + Herbicide 1 0.56 Kg/Ha
[16] = Insecticide 1 0.23 kg/305m + Herbicide 1 2.24 Kg/Ha
[17] = Insecticide 2 3.36 kg/ha + Herbicide 1 0.14 Kg/Ha
[18] = Insecticide 2 3.36 kg/ha + Herbicide 1 0.56 Kg/Ha
[19] = Insecticide 2 3.36 kg/ha + Herbicide 1 2.24 Kg/Ha

COC(=O)c1c(Cl)nn(C)c1S(=O)(=O)NC(=O)Nc1nc(OC)cc(OC)n1 [Herbicide No. 1, N-[(4,6-dimethoxypyrimidin-2-yl)aminocarbonyl]-3-chloro-4-methoxycarbonyl-5-sulfonamide, reference compound]
inhibition at 140 g/ha (Corn [1]; read-out: % Inhibition Corn, Herb. No. 1 0.14 kg/Ha alone, PPI, 13 days after planting): 10% | inhibition at 140 g/ha (Corn [1]; read-out: % Inhibition Corn, Table 51, Herbicide No. 1 0.14 Kg/Ha, where applied Biocide No. 8 8.96 kg/Ha and antidote 4.48 Kg/Ha, all PPI, observed 13 days after treatment): 0% | inhibition at 140 g/ha (Corn [1]; read-out: % Inhibition Corn, Table 52, Herbicide No. 1 0.14 Kg/Ha, where applied Biocide No. 5 8.96 kg/Ha and antidote 4.48 Kg/Ha, all PPI, observed 13 days after treatment): 0% | % Injury Corn (Corn [2]; Ex. 2: Herbicide 1 0.14 Kg/Ha): 4% | % Injury Corn (Corn [2]; Ex. 2: Herbicide 1 0.56 Kg/Ha): 58% | injury to corn (Corn [2]; Ex. 2: Herbicide No. 1 0.14 kg/ha + Insecticide No. 2, no antidote): 65% | % Injury Corn (Corn [2]; [4]): 83% | % Injury Corn (Corn [2]; [5]): 93% | % Injury Corn (Corn [2]; [6]): 90% | % Injury Corn (Corn [2]; [7]): 83% | % Injury Corn (Corn [2]; [8]): 96% | % Injury Corn (Corn [2]; [9]): 83% | % Injury Corn (Corn [2]; Ex. 3: Herbicide 1 0.14 Kg/Ha): 10% | % Injury Corn (Corn [2]; Ex. 3: Herbicide 1 0.56 Kg/Ha): 63% | % Injury Corn (Corn [2]; Ex. 3: Insecticide 3 (227 g) + Herbicide 1 0.14 + Herbicide 2 4.48 Kg/Ha): 73% | % Injury Corn (Corn [2]; Ex. 3: Insecticide 3 (227g) + Herbicide 1 0.14 Kg/Ha): 45% | % Injury Corn (Corn [2]; Ex. 3: Insecticide 3 (227g) + Herbicide 1 0.56 Kg/Ha): 93% | % Injury Corn (Corn [2]; Ex. 3: Insecticide 4 (227g) + Herbicide 1 0.14 + Herbicide 2 4.48 Kg/Ha): 88% | % Injury Corn (Corn [2]; Ex. 3: Insecticide 4 (227g) + Herbicide 1 0.14 Kg/Ha): 55% | % Injury Corn (Corn [2]; Ex. 3: Insecticide 4 (227g) + Herbicide 1 0.56 Kg/Ha): 45% | % Corn Injury PN 3320 (Corn [2]; Ex. 6: Herbicide 1 0.14 Kg/Ha): 85% | % Corn Injury PN 3377 (Corn [2]; Ex. 6: Herbicide 1 0.14 Kg/Ha): 12% | % Corn Injury PN 3320 (Corn [2]; Ex. 6: Herbicide 1 0.56 Kg/Ha): 88% | % Corn Injury PN 3377 (Corn [2]; Ex. 6: Herbicide 1 0.56 Kg/Ha): 23% | % Corn Injury PN 3320 (Corn [2]; [10]): 95% | % Corn Injury PN 3377 (Corn [2]; [10]): 78% | % Corn Injury PN 3320 (Corn [2]; [11]): 95% | % Corn Injury PN 3377 (Corn [2]; [11]): 90% | % Corn Injury PN 3320 (Corn [2]; [12]): 85% | % Corn Injury PN 3377 (Corn [2]; [12]): 48% | % Corn Injury PN 3320 (Corn [2]; [13]): 88% | % Corn Injury PN 3377 (Corn [2]; [13]): 90% | Percent Injury Corn (Corn [2]; Herbicide 1 0.14 Kg/Ha): 18% | Percent Injury Corn (Corn [2]; Herbicide 1 0.56 Kg/Ha): 58% | Percent Injury Corn (Corn [2]; Herbicide 1 2.24 Kg/Ha): 85% | Percent Injury Corn (Corn [2]; [14]): 85% | Percent Injury Corn (Corn [2]; [15]): 97% | Percent Injury Corn (Corn [2]; [16]): 95% | Percent Injury Corn (Corn [2]; [17]): 60% | Percent Injury Corn (Corn [2]; [18]): 90% | Percent Injury Corn (Corn [2]; [19]): 95% | inhibition at 140 g/ha (SJCA; 312 h, Table 52, Herbicide No. 1 0.14 Kg/Ha, where applied Biocide No. 5 8.96 kg/Ha and antidote 4.48 Kg/Ha, observed 13 days after treatment): 70% | % Inhibition SJCA (SJCA; Table 53, where applied Biocide No. 7 8.96 kg/Ha and antidote 4.48 Kg/Ha, observed 13 days after treatment): 75% | % Inhibition SJCA (SJCA; Table 54, where applied Biocide No. 6 8.96 kg/Ha and antidote 4.48 Kg/Ha, observed 14 days after PPI initiation): 65% | % Injury VELE ([3]; Ex. 2: Herbicide 1 0.14 Kg/Ha): 89% | % Injury VELE ([3]; Ex. 2: Herbicide 1 0.56 Kg/Ha): 93% | % Injury VELE [3, 4]: 93% | % Injury VELE [3, 5]: 94% | % Injury VELE [3, 6]: 95% | % Injury VELE [3, 7]: 83% | % Injury VELE [3, 8]: 95% | % Injury VELE [3, 9]: 88% | Percent Injury VELE ([3]; Herbicide 1 0.14 Kg/Ha): 90% | Percent Injury VELE ([3]; Herbicide 1 0.56 Kg/Ha): 95% | Percent Injury VELE ([3]; Herbicide 1 2.24 Kg/Ha): 92% | Percent Injury VELE [3, 14]: 90% | Percent Injury VELE [3, 15]: 92% | Percent Injury VELE [3, 16]: 95% | Percent Injury VELE [3, 17]: 78% | Percent Injury VELE [3, 18]: 92% | Percent Injury VELE [3, 19]: 92%
